Patent publication US11891464B2, “Alkane-soluble non-metallocene precatalysts” (Dow Global Technologies LLC, priority 2018, dated 2024)

How the values were obtained:
[1] = Light-off Test Method (time to maximum temperature in polymerization of 1-octene); conditions: for Light-off Performance (Time to Maximum (minutes)): 8 micromoles precatalyst, 0.16 g spray dried methylaluminoxane, 11 mL 1-octene
Experimental: Light-off Test Method: Under an atmosphere of nitrogen in a glovebox, charge a 40 mL glass vial with a PTFE-coated, magnetic stir bar and 0.16 g of spray dried methylaluminoxane powder of Preparation 1A. To the charged vial add 11 mL of 1-octene, and then insert the vial into an insulated sleeve mounted on a magnetic stir plate turning at approximately 300 rotations per minute (rpm). To the insulated vial add 8 micromoles (μmol) of precatalyst (e.g., compound (1) or HN5Zr dibenzyl). Cap the vial with a rubber septum. Insert a thermocouple probe through the rubber septum into the vial such that the tip of the thermocouple probe is below the liquid level. Record the temperature of the contents of the vial at 5 second intervals, continuing until after the maximum temperature is reached. Download the temperature and time data to a spreadsheet, and plot thermo-kinetic profiles for analysis.

[2] = Solubility Test Method (solubility in hexanes); format: physicochemical; conditions: hexanes containing at least 60 wt % n-hexane; room temperature and ambient pressure
Experimental: Solubility Test Method: to a 20-mL vial is added, at room temperature and ambient pressure, a known mass of test precatalyst (e.g., compound (1)) and a known volume of hexanes containing at least 60 weight percent n-hexane. A PTFE-coated magnetic stir bar is added and the mixture is allowed to stir for 1 hour before the vial is removed from the stir plate, and the mixture is allowed to sit overnight. The next day the suspension is filtered through a 0.4 μm PTFE syringe filter into a tared vial, giving a known mass of supernatant, and the hexanes are removed under reduced pressure, leaving a measurable mass of the compound of formula (1) from which wt. % solubility is calculated.

Row | Molecule | Light-off Performance (Time to Maximum (minutes)) [1] | Solubility in Hexanes (wt %) [2] | time to maximum temperature, times better than HN5Zr dichloride (CE1) ([1]; relative to HN5Zr dichloride (CE1))
1 | Cc1c(C)c(C)c([N-]CCNCC[N-]c2c(C)c(C)c(C)c(C)c2C)c(C)c1C.[CH2-]c1ccccc1.[CH2-]c1ccccc1.[Zr+4] [HN5Zr dibenzyl (CE2)] | 78.6 min | 0.03 wt % | 
2 | Cc1c(C)c(C)c([N-]CCNCC[N-]c2c(C)c(C)c(C)c(C)c2C)c(C)c1C.[Cl-].[Cl-].[Zr+4] [HN5Zr dichloride (CE1)] | 5.2 min |  | 
3 | bis(2-(pentamethylphenylamido)ethyl)-amine zirconium(IV) bis-trimethylsilylmethyl [Compound (1A)] | 1.3 min |  | 4 times
